From patent publication US20230143604A1, “QW DOSING OF GIP RECEPTOR AGONIST PEPTIDE COMPOUNDS AND USES THEREOF” (TAKEDA PHARMACEUTICAL COMPANY LIMITED, priority 2020, published 2023)
Like-named read-outs stand apart in the source and are kept apart here. Starred links: 1 amine or outer side, 2 acyl side, 3 side chain; linkers in the order of their positions; H or OH if unused. Non-standard residues stand in square brackets, D forms with d. Residues, ends and D or L forms follow the SMILES beside them. Groups on a side chain read outwards from the residue. *: point of attachment. C18 diacid = O=C(O)CCCCCCCCCCCCCCCCC(=O)*; C17 diacid = O=C(O)CCCCCCCCCCCCCCCC(=O)*; γGlu = O=C(O)[C@H](CCC(=O)[*:2])N[*:1]; NMeY = CN[C@@H](Cc1ccc(O)cc1)C(=O)O; AEEA = NCCOCCOCC(=O)O; Aib = CC(C)(N)C(=O)O

What was measured:
[1] = Human plasma protein binding (PPB); format: in vitro ADME; details: for fraction unbound at 30 min, 1000 nmol/L: both sexes, pH 7.4
Description: Stock solutions: (1000 μM) of the peptides are prepared in DMSO.
Human plasma (mixed gender; containing K2-EDTA as anti-coagulant; pre-adjusted to pH 7.4—NB alternative species may be used) is spiked individually with each test peptide (1000 nmol/L), sampled for analysis and then incubated (n=4) at 37° C. in a water bath for 30 minutes. Following the incubation period, the plasma is sampled for analysis, then transferred to ultracentrifugation tubes and centrifuged (n=3) at […] and 4° C. for 3 hours, after which the supernatant is sampled for analysis. An additional aliquot of the supernatant is taken at the end of the centrifugation period to determine the total protein concentration. An aliquot of the incubated plasma will be stored at 4° C. for 3 hours and then sampled for analysis. At the point of sampling, all samples are matrix-matched, treated with ice-cold acetonitrile/methanol (4:1 (vfv)) containing internal standard, centrifuged al 2000 g and 4° C. for 10 minutes and stored prior to LC-MS/MS analysis. An appropriate positive control compound control will be incubated and centrifuged in parallel; control plasma is also centrifuged to generate samples for matrix-matching. Fraction unbound in plasma (Fuplasma) values is determined by comparison of the analyte response in plasma to the analyte response in the supernatant, determined via peak area response ratios.
The samples are analyzed by LC-MS/MS using a 6500 (or equivalent) triple quadrupole mass spectrometer (AB Sciex) coupled to an appropriate Liquid Chromatography (LC) system. Protein binding and stability values are determined via peak area ratios using multiple reaction monitoring (MRM) parameters following compound optimisation. Multiple reaction monitoring (MRM) is a highly sensitive method of targeted mass spectrometry (MS) that can be used to selectively detect and quantify peptides based on the screening of specified precursor peptide-to-fragment ion transitions.

[2] = Dog plasma protein binding (PPB); format: in vitro ADME; details: for fraction unbound at 30 min, 1000 nmol/L: pH 7.4
Description: Dog PPB values presented below are obtained essentially as described for Human PPB samples, with the difference being that dog serum is used instead of human serum. Table 10 is provided with the values of (Fu,plasma) as fraction unbound expressed as a percentage compared to the percent bound. i.e. if the value is 0.0123, then the fraction unbound is […], which is 1.23% of the peptide is unbound and 98.77% is bound in plasma. Methods and analysis for performing the dog PPB protocol and results are the same as noted herein as for the Human PPB protocol and analysis.

physchem = assay: physchem
How it was run: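 Solubility at pH 7.4 determined by stepwise addition of 200 mM phosphate buffer in 100 μL increments to 3 mg peptide, mixing briefly each time, until no insoluble material remained, then measured by liquid chromatography.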

[3] = Pharmacokinetics in dog after IV and SC dosing; details: in vivo
Description: Pharmacokinetic (PK) were conducted in dog in order to determine the half-life after IV and SC dosing. The peptide was dissolved in 10% DMSO/0.09% Polysorbate/PBS pH 7.4 to a concentration of 3 nmol/mL and the animal were dose with a volume of 1 mL/kg SC or IV. Blood sample were collected at 0, 0.033, 0.083, 0.25, 0.5, 1, 2, 4, 6, 8, 12, 24, 48, 72, 96, 120, 168, 336 hours for IV dosing and 0.25, 0.5, 1, 2, 4, 6, 8, 12, 24, 48, 72, 96, 120, 168, 336 for SC dosing, EDTA-K2 was used as anticoagulant. The plasma concentration of the peptide was measured using LCMS. Allometric scaling of lipidated peptide pharmacokinetics including T1/2 and MRT is known in the art for rodent to dog and mini pig and to humans. […] See for example, Discovery and Development of Liraglutide and Semaglutide. Knudsen, L. B.; Lau, J. Frontiers in Endocrinology, 2019, vol 10, Article 155.

[4] = judged for once per week (QW) dosing

Row | Compound | fraction unbound at 30 min, 1000 nmol/L ([1]; human, plasma) | free unbound peptide in human plasma (in words) ([1]; human, plasma) | fraction unbound at 30 min, 1000 nmol/L ([2]; dog, serum) | solubility (physchem; pH 7.4) [mg/mL] | solubility (physchem; pH 7.4, aqueous buffer) [mg/mL] | half-life ([3]; iv, 3 nmol/kg) [h] | MRT last ([3]; sc, 3 nmol/kg) [h] | fraction unbound at 30 min, 1000 nmol/L ([1]; fraction unbound, human plasma, 1000 nmol/L peptide, ultracentrifugation, read-out: Human PPB (FUplasma)) | free unbound peptide in human plasma (in words) [1, 4] | fraction unbound at 30 min, 1000 nmol/L ([2]; fraction unbound, dog serum, read-out: Dog PPB (FUplasma)) | solubility (physchem; pH 7.4, aqueous buffer, pH 7.4 Phosphate Buffer - Solubility, 200 mM Phosphate buffer pH 7.4) [mg/mL] | solubility (physchem; pH 7.4, solubility in phosphate buffer at pH 7.4, 200 mM phosphate buffer pH 7.4) [mg/mL] | MRT ([3]; 3 nmol/kg, read-out: mean residence time (MRT)) [h] | half-life ([3]; IV 3 nmol/kg, read-out: IV T½ (converted)) [h] | MRT last ([3]; SC 3 nmol/kg, read-out: SC MRT 0-last) [h] | fraction unbound at 30 min, 1000 nmol/L ([1]; plasma (K2-EDTA), fraction unbound, human plasma, 1000 nmol/L peptide, ultracentrifugation, read-out: Human PPB (FUplasma)) | Dog PPB (FUplasma) ([2]; fraction unbound, dog serum)
1 | CC[C@H](C)[C@H](NC(=O)[C@H](CO)NC(=O)[C@H](Cc1ccc(O)cc1)NC(=O)[C@H](CC(=O)O)NC(=O)[C@H](CO)NC(=O)[C@@H](NC(=O)[C@H](Cc1ccccc1)NC(=O)[C@@H](NC(=O)CNC(=O)[C@H](CCC(=O)O)NC(=O)C(C)(C)NC(=O)[C@H](Cc1ccc(O)cc1)NC)[C@@H](C)O)[C@@H](C)CC)C(=O)N[C@@H](C)C(=O)N[C@@H](CC(C)C)C(=O)N[C@@H](CC(=O)O)C(=O)N[C@@H](CCCNC(=N)N)C(=O)NC(C)(C)C(=O)N[C@@H](CCCCNC(=O)COCCOCCNC(=O)COCCOCCNC(=O)CC[C@H](NC(=O)CC[C@H](NC(=O)CCCCCCCCCCCCCCCCC(=O)O)C(=O)O)C(=O)O)C(=O)N[C@@H](CCC(N)=O)C(=O)NC(C)(C)C(=O)N[C@@H](CC(N)=O)C(=O)N[C@@H](Cc1ccccc1)C(=O)N[C@H](C(=O)N[C@@H](CC(N)=O)C(=O)N[C@@H](Cc1c[nH]c2ccccc12)C(=O)N[C@@H](CC(C)C)C(=O)N[C@@H](CC(C)C)C(=O)N[C@@H](C)C(=O)N[C@@H](CCC(N)=O)C(=O)N[C@@H](CO)C(=O)N1CCC[C@H]1C(=O)N[C@@H](CO)C(=O)N[C@@H](CO)C(=O)NCC(=O)N[C@@H](C)C(=O)N1CCC[C@H]1C(=O)N1CCC[C@H]1C(=O)N1CCC[C@H]1C(=O)N[C@@H](CO)C(N)=O)C(C)C [Compound 293, Me-Y-Aib-E-G-T-F-I-S-D-Y-S-I-A-L-D-R-Aib-Km-Q-Aib-N-F-V-N-W-L-L-A-Q-S-P-S-S-G-A-P-P-P-S-NH2] (H-[NMeY][Aib]EGTFISDYSIALDR[Aib]K([AEEA-AEEA-γGlu-γGlu-C18 diacid])Q[Aib]NFVNWLLAQSPSSGAPPPS-NH2) | < 0.002 | optimum free unbound peptide | < 0.002 | ≥ 15 | ≥ 30 | 68 | 83 |  |  |  |  |  |  |  |  |  | 
2 | CC[C@H](C)[C@H](NC(=O)[C@H](Cc1ccccc1)NC(=O)[C@@H](NC(=O)CNC(=O)[C@H](CCC(=O)O)NC(=O)C(C)(C)NC(=O)[C@H](Cc1ccc(O)cc1)NC)[C@@H](C)O)C(=O)N[C@@H](CO)C(=O)N[C@@H](CC(=O)O)C(=O)N[C@@H](Cc1ccc(O)cc1)C(=O)N[C@@H](CO)C(=O)N[C@H](C(=O)NC(C)(C)C(=O)N[C@@H](CC(C)C)C(=O)N[C@@H](CC(=O)O)C(=O)N[C@@H](CCCNC(=N)N)C(=O)NC(C)(C)C(=O)N[C@@H](C)C(=O)N[C@@H](CCC(N)=O)C(=O)NC(C)(C)C(=O)N[C@@H](CC(N)=O)C(=O)N[C@@H](Cc1ccccc1)C(=O)N[C@H](C(=O)N[C@@H](CC(N)=O)C(=O)N[C@@H](Cc1c[nH]c2ccccc12)C(=O)N[C@@H](CC(C)C)C(=O)N[C@@H](CC(C)C)C(=O)N[C@@H](C)C(=O)N[C@@H](CCC(N)=O)C(=O)N[C@@H](CCCCNC(=O)COCCOCCNC(=O)COCCOCCNC(=O)CC[C@H](NC(=O)CC[C@H](NC(=O)CCCCCCCCCCCCCCCC(=O)O)C(=O)O)C(=O)O)C(=O)N1CCC[C@H]1C(=O)N[C@@H](CO)C(=O)N[C@@H](CO)C(=O)NCC(=O)N[C@@H](C)C(=O)N1CCC[C@H]1C(=O)N1CCC[C@H]1C(=O)N1CCC[C@H]1C(=O)N[C@@H](CO)C(N)=O)C(C)C)[C@@H](C)CC [Compound 16] (H-[NMeY][Aib]EGTFISDYSI[Aib]LDR[Aib]AQ[Aib]NFVNWLLAQK([AEEA-AEEA-γGlu-γGlu-C17 diacid])PSSGAPPPS-NH2) |  |  |  |  |  |  |  | < 0.0012 | optimum free unbound peptide | ≤ 0.00116 | ≥ 30 | ≥ 15 | 59 | 38 | 59 |  | 
3 | CC[C@H](C)[C@H](NC(=O)[C@H](Cc1ccccc1)NC(=O)[C@@H](NC(=O)CNC(=O)[C@H](CCC(=O)O)NC(=O)C(C)(C)NC(=O)[C@H](Cc1ccc(O)cc1)NC)[C@@H](C)O)C(=O)N[C@@H](CO)C(=O)N[C@@H](CC(=O)O)C(=O)N[C@@H](Cc1ccc(O)cc1)C(=O)N[C@@H](CO)C(=O)N[C@H](C(=O)NC(C)(C)C(=O)N[C@@H](CC(C)C)C(=O)N[C@@H](CC(=O)O)C(=O)N[C@@H](CCCNC(=N)N)C(=O)NC(C)(C)C(=O)N[C@@H](C)C(=O)N[C@@H](CCC(N)=O)C(=O)NC(C)(C)C(=O)N[C@@H](CC(N)=O)C(=O)N[C@@H](Cc1ccccc1)C(=O)N[C@H](C(=O)N[C@@H](CC(N)=O)C(=O)N[C@@H](Cc1c[nH]c2ccccc12)C(=O)N[C@@H](CC(C)C)C(=O)N[C@@H](CC(C)C)C(=O)N[C@@H](C)C(=O)N[C@@H](CCC(N)=O)C(=O)N[C@@H](CCCCNC(=O)COCCOCCNC(=O)COCCOCCNC(=O)CC[C@H](NC(=O)CC[C@H](NC(=O)CCCCCCCCCCCCCCCCC(=O)O)C(=O)O)C(=O)O)C(=O)N1CCC[C@H]1C(=O)N[C@@H](CO)C(=O)N[C@@H](CO)C(=O)NCC(=O)N[C@@H](C)C(=O)N1CCC[C@H]1C(=O)N1CCC[C@H]1C(=O)N1CCC[C@H]1C(=O)N[C@@H](CO)C(N)=O)C(C)C)[C@@H](C)CC [Compound 27, Me-Y-Aib-E-G-T-F-I-S-D-Y-S-I-Aib-L-D-R-Aib-A-Q-Aib-N-F-V-N-W-L-L-A-Q-Km-P-S-S-G-A-P-P-P-S-NH2] (H-[NMeY][Aib]EGTFISDYSI[Aib]LDR[Aib]AQ[Aib]NFVNWLLAQK([AEEA-AEEA-γGlu-γGlu-C18 diacid])PSSGAPPPS-NH2) |  |  |  | ≥ 15 | ≥ 30 | 77 | 109 |  | optimum free unbound peptide |  |  |  |  |  |  | 0.0013 | <0.002
